Experimental data reported in patent US10844102B2, “Peptides, compositions, and methods for stimulating subcutaneous adipogenesis” (The Regents of the University of California, priority 2014, dated 2020).
Entries after “also recorded” stand apart in the source; their conditions may differ.

What was measured:
Format in all cases: cell-based
[1] = test system: rat mesenchymal stem cells; experiment: Assay 2: adipogenesis, Oil Red O staining (differentiation of pre-adipocytes into adipocytes); conditions: for adipogenic activity in Assay 2: Assay 2, Oil Red O, concentration not given; for adipogenesis quantified by Oil Red O staining, fold change relative to the negative control: three weeks
Procedure: Reagents: The Dexamethasone, IBMX, Insulin, and Oil Red O Solutions were the same as described above for assay 1. Indomethacin Solution contained 10 mM indomethacin in methanol.
Adipogenesis Maintenance Media was prepared as described above.
Adipogenesis Induction Media: To prepare 501.5 mL of Adipogenesis Induction Media, 50 μL of the 10 mM stock Dexamethasone Solution, 500 μL of the 0.5 M IBMX stock solution, 500 μL of the 10 mg/ml stock Insulin Solution, 5 ml of a 10 mM stock Indomethacin Solution, and 5 mL of a 100× stock solution of penicillin and streptomycin were added to 490 mL of mesenchymal stem cell expansion media.
Pre-adipocyte stem cells, bone marrow mesenchymal stem cells or fibroblasts such as dermal reticular and papillary fibroblasts were propagated using standard tissue culture methods. Cells were trypsinized to remove cells from the substratum, the trypsin was neutralized, and cells were counted using a hemocytometer. Cells were resuspended at 20,000 cells/ml in DMEM containing 10% calf serum. 1 mL of cell suspension per well was plated in a 48-well plate, with several wells left empty for blank well (blank control) staining.
Cells were incubated for 2 days overnight and had reached confluency at this point. Media was removed from each well and replaced with 0.5 ml Adipogenesis Induction Media. For negative control (no insulin, no peptide) wells, expansion medium only was used at this step and for subsequent media changes. For all media changes, media was replaced as gently as possible to avoid disturbing the monolayer.
Cells were incubated for 72 hours at 37° C., 5% CO2. Media was removed and replaced with 0.5 ml of Adipogenesis Maintenance Media containing either RHAMM antagonist peptides (experimental group) or insulin (concentration as in the Adipogenesis Induction Media and used as a positive control). Cells were incubated for at least 96 hours in this media at 37° C., 5% CO2. Media was replaced every 48 hours and experiments were terminated between seven and fourteen days after addition of insulin or peptides.
Media was removed and Oil Red O staining was performed as described above for assay 1.
Assay 1 is an assay that promotes transdifferentiation of fibroblasts into adipocytes, whereas Assay 2 promotes differentiation of multi-potential mesenchymal progenitor cells into adipocytes. Immortalized rat bone marrow mesenchymal stem cells were used for both assays. These cells contain cells of different lineages, including fibroblasts, pre-adipocytes, pre-chondrocytes and pre-osteoblasts. Thus, Assay 1 was used to promote transdifferentiation of fibroblast lineages into adipocytes and Assay 2 was used to promote differentiation of the pre-adipocytes into adipocytes.
As described in Example 1 above, the priming stimulus for Assay 1 includes IBMX (3-isobutyl-1-methylxanthine) and dexamethasone, and then insulin as the final adipogenic stimulus. The priming stimulus for assay 2 includes IBMX, dexamethasone and indomethacin, and then insulin as the final adipogenic stimulus.
Adipogenesis was quantified by Oil Red O staining. The peptide was tested at concentrations of 5 and 50 μg/ml over a period of three weeks. Cells were plated in 48-well culture plates, and the purity of the peptides was >95%. All data are presented as the fold change relative to the negative control (Ctr(−))±standard error. The KSEVSK 6-mer (SEQ ID NO: 7) was used as a positive control.

[2] = test system: rat mesenchymal stem cells; experiment: Assay 1: adipogenesis, Oil Red O staining (transdifferentiation of fibroblast lineages into adipocytes); conditions: for adipogenic activity in Assay 1: Assay 1, Oil Red O, concentration not given; for adipogenesis quantified by Oil Red O staining, fold change relative to the negative control: three weeks
Procedure: Reagents: (1) 3-isobutyl-1-methylxanthine (IBMX) solution: 0.5M in DMSO; (2) Insulin Solution: 10 mg/mL recombinant human insulin; (3) Dexamethasone Solution in 10 mM in ethanol; (4) Oil Red O (0.36% in 60% isopropanol).
Adipogenesis Initiation Media: mesenchymal stem cell expansion media/0.5 mM IBMX/1 μM dexamethasone. Mesenchymal stem cell expansion media is commercially available from Millipore. The IBMX Solution was diluted 1:1000 and the Dexamethasone Solution was diluted 1:10,000 in expansion media containing antibiotics and antimycotics. The prepared media was stored at 4° C.
Adipogenesis Progression Media for positive control: mesenchymal stem cell expansion media/10 μg/mL insulin. The Insulin Solution was diluted 1:1000 in the expansion media and stored at 4° C.
Experimental Adipogenesis Progression Media: mesenchymal stem cell expansion media/1-100 μg/mL RHAMM antagonist peptides.
Adipogenesis Maintenance Media: mesenchymal stem cell expansion media containing antibiotics and antimycotics.
Negative Control Media: Dulbecco's Modified Eagle's Medium (DMEM)/10% normal calf serum.
Pre-adipocyte stem cells including bone marrow mesenchymal stem cells and fibroblasts were propagated using standard tissue culture methods. Cells were trypsinized to remove the cells from the substratum. The trypsin was neutralized and cells were counted using a hemocytometer. Cells were resuspended at 20,000 cells/mL in expansion media. 1 mL of cell suspension was plated per well of 48-well plate, with several wells left empty for blank well (blank control) staining.
Cells were incubated until they reached confluency. When cells were fully confluent, the expansion media was replaced with 0.5 mL of Adipogenesis Initiation Media. For negative controls (no insulin, no peptides), expansion media only was used at this step and for subsequent media changes. For all media changes, media was replaced as gently as possible to avoid disturbing the monolayer.
Cells were incubated in Adipogenesis Initiation Media for 72 hours at 37° C., 5% CO2. 0.5 mL media was then removed from each well, and replaced with 0.5 mL of either positive control or experimental Adipogenesis Progression Media per well. Cells were again incubated for 96 hours at 37° C., 5% CO2, after which time media was replaced every 48 hours with Adipogenesis Maintenance Media (0.5 mL of media was removed from each well and replaced with 0.5 mL Adipogenesis Maintenance Media per well). Media added to empty wells served as blank controls for blank well background staining. Cells were incubated in Adipogenesis Maintenance Medium for at least 96 hours at 37° C., 5% CO2 after which time media was replaced with Adipogenesis Maintenance Medium. Lipid droplets had appeared by the time Adipogenesis Maintenance Medium was initially added and continued to accumulate and increase in size for 7-14 days. Experiments were terminated between seven and fourteen days after the initial addition of Adipogenesis Maintenance Medium.
For quantification of Oil Red O staining, media was removed and cells were washed twice with PBS, using care to gently add the PBS. Cells were then fixed in 4% paraformaldehyde (0.5 mL/well) and incubated for 30 minutes. The fixation solution was then removed and wells were washed two times with 1 mL of phosphate buffered saline (PBS) and once with 1 mL Milli-Q water. 0.25 mL Oil Red O solution was added per well of 48-well plate, including to the wells lacking cells, but containing media. Cells were incubated for 15 minutes at room temperature. The staining solution was then removed and wells were washed two times with 1 mL of Milli-Q water and once with washing solution (63% isopropanol in water).
Adipogenesis was quantified using a spectrophotometer. 0.25 mL Dye Extraction Solution (isopropyl alcohol) was added per well, and the plate was set on an orbital shaker or platform rocker for 30 minutes. […]

adipogenesis = experiment: Adipogenic activity of peptides and peptide fragments, assay not specified; conditions: assay not specified
Procedure: In the second approach, a series of truncations and alanine mutagenesis on peptide B were performed in order to identify the smallest active sequence. Fragments of peptide B were prepared and assayed for adipogenesis. First, fragments corresponding to the two halves of peptide B were prepared (KLKDENS (SEQ ID NO: 8) and SQLKSEVSK (SEQ ID NO: 13)).

[3] = test system: human primary cells directly isolated from human subcutaneous fat or dermal tissue; experiment: Human primary cells isolated from subcutaneous fat or dermal tissue

Substance: KLKDENSQLR (listed as Erinaceus europaeus)
- adipogenic activity in Assay 2 [1]: promising results
- adipogenic activity in Assay 1 [2]: promising results

Substance: KLKDENSQLK (listed as Homo sapiens)
- adipogenic activity in Assay 2 [1]: exhibited activity
- adipogenesis quantified by Oil Red O staining, fold change relative to the negative control ([1]; Assay 2, peptide 5 μg/ml): significant increase in adipogenesis
- adipogenesis quantified by Oil Red O staining, fold change relative to the negative control ([1]; Assay 2, peptide 50 μg/ml): significant increase in adipogenesis
- adipogenic activity (adipogenesis): has adipogenic activity; also recorded: are adipogenic
- adipogenic activity in Assay 1 [2]: exhibited activity
- adipogenesis quantified by Oil Red O staining, fold change relative to the negative control ([2]; Assay 1, peptide 5 μg/ml): significant increase in adipogenesis
- adipogenesis quantified by Oil Red O staining, fold change relative to the negative control ([2]; Assay 1, peptide 50 μg/ml): significant increase in adipogenesis

Substance: KTRAHHV (listed as Paenibacillus polymyxa)
- adipogenic activity in Assay 2 [1]: ablated adipogenic activity
- adipogenic activity in Assay 1 [2]: ablated adipogenic activity

Substance: KSEVSK (listed as Homo sapiens) [reference compound]
- specific activity among the 9-mer, 7-mer and 6-mer fragments ([1]; Assay 2): highest specific activity
- adipogenic activity in Assay 2 [1]: exhibit adipogenic activity
- adipogenic activity (adipogenesis): also found to be adipogenic
- adipogenic activity in human primary cells [3]: exhibited adipogenic activity
- specific activity among the 9-mer, 7-mer and 6-mer fragments ([2]; Assay 1): highest specific activity
- adipogenic activity in Assay 1 [2]: exhibit adipogenic activity
